Experimental data published in PubChem BioAssay AID1963870 (Molecular Pharmacology Branch, DTP, NCI, 2024).

Test system: 292921-168-R-J2-PDC KRAS tumor spheroid viability
Experiment: Anticancer human tumor 292921-168-R-J2-PDC patient-derived pancreatic carcinoma cell line growth inhibition [KRAS2]
Conditions: spheroids with HUVEC and MSC; for IC50: curve of first compound; for viability, T/C: stronger effect = lower value
How it was run: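 Combination screen of spheroid viability in tumor-cell co-cultures with endothelial (HUVEC) and mesenchymal stem cell stroma. Each agent was tested in half-log dilutions, topping at clinical Cmax or at 10 microM without a known Cmax.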

[1] = second compound 0.0316 µM, first compound 0.01 µM
[2] = second compound 0.0316 µM, first compound 0.0316 µM
[3] = second compound 0.0316 µM, first compound 0.1 µM
[4] = second compound 0.0316 µM, first compound 0.316 µM
[5] = second compound 0.0316 µM, first compound 1 µM
[6] = second compound 0.0316 µM, first compound 3.16 µM
[7] = second compound 0.1 µM, first compound 0.01 µM
[8] = second compound 0.1 µM, first compound 0.0316 µM
[9] = second compound 0.1 µM, first compound 0.1 µM
[10] = second compound 0.1 µM, first compound 0.316 µM
[11] = second compound 0.1 µM, first compound 1 µM
[12] = second compound 0.1 µM, first compound 3.16 µM
[13] = second compound 0.316 µM, first compound 0.01 µM
[14] = second compound 0.316 µM, first compound 0.0316 µM
[15] = second compound 0.316 µM, first compound 0.1 µM
[16] = second compound 0.316 µM, first compound 0.316 µM
[17] = second compound 0.316 µM, first compound 1 µM
[18] = second compound 0.316 µM, first compound 3.16 µM
[19] = second compound 1 µM, first compound 0.01 µM
[20] = second compound 1 µM, first compound 0.0316 µM
[21] = second compound 1 µM, first compound 0.1 µM
[22] = second compound 1 µM, first compound 0.316 µM
[23] = second compound 1 µM, first compound 1 µM
[24] = second compound 1 µM, first compound 3.16 µM
[25] = second compound 3.16 µM, first compound 0.01 µM
[26] = second compound 3.16 µM, first compound 0.0316 µM
[27] = second compound 3.16 µM, first compound 0.1 µM
[28] = second compound 3.16 µM, first compound 0.316 µM
[29] = second compound 3.16 µM, first compound 1 µM
[30] = second compound 3.16 µM, first compound 3.16 µM
[31] = second compound 10 µM, first compound 0.0316 µM
[32] = second compound 10 µM, first compound 0.1 µM
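Note: drug exposure lasted seven days after spheroids formed for three days.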
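Throughout, for viability, T/C: percent of DMSO vehicle control viability which is 100%.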

CC1COCCN1c1cc(-c2ccnn2C)c2ccnc(-c3ccn[nH]3)c2n1 (stereo not given) + C=CC(=O)N1CCN(c2nc(OCC3CCCN3C)nc3c2CCN(c2cccc4cccc(C)c24)C3)CC1CC#N
IC50 (second compound 0.0316 µM): < 10 nM | IC50 (second compound 0.1 µM): < 10 nM | IC50 (second compound 0.316 µM): < 10 nM | IC50 (second compound 1 µM): < 10 nM | IC50 (second compound 3.16 µM): < 10 nM | viability, T/C [1]: 38.6% | viability, T/C [2]: 16.4% | viability, T/C [3]: 11.5% | viability, T/C [4]: 10% | viability, T/C [5]: 11.9% | viability, T/C [6]: 12.6% | viability, T/C [7]: 33.6% | viability, T/C [8]: 14% | viability, T/C [9]: 9.02% | viability, T/C [10]: 9.07% | viability, T/C [11]: 11% | viability, T/C [12]: 11.7% | viability, T/C [13]: 22.6% | viability, T/C [14]: 11% | viability, T/C [15]: 7.47% | viability, T/C [16]: 8.07% | viability, T/C [17]: 9.3% | viability, T/C [18]: 10.8% | viability, T/C [19]: 8.66% | viability, T/C [20]: 6.29% | viability, T/C [21]: 5.9% | viability, T/C [22]: 6.42% | viability, T/C [23]: 6.98% | viability, T/C [24]: 7.65% | viability, T/C [25]: 0.1% | viability, T/C [26]: 0.09% | viability, T/C [27]: 0.08% | viability, T/C [28]: 0.09% | viability, T/C [29]: 0.27% | viability, T/C [30]: 0.15%

Cn1ncnc1[C@H]1c2n[nH]c(=O)c3cc(F)cc(c23)N[C@@H]1c1ccc(F)cc1 + C=CC(=O)N1CCN(c2nc(=O)n(-c3c(C)ccnc3C(C)C)c3nc(-c4c(O)cccc4F)c(F)cc23)C(C)C1
IC50 (second compound 0.1 µM): > 100 nM | IC50 (second compound 0.316 µM): > 100 nM | IC50 (second compound 1 µM): > 100 nM | IC50 (second compound 3.16 µM): 89.7 nM | IC50 (second compound 10 µM): < 0.316 nM | viability, T/C (second compound 0.1 µM, first compound 0.000316 µM): 103% | viability, T/C (second compound 0.1 µM, first compound 0.001 µM): 104% | viability, T/C (second compound 0.1 µM, first compound 0.00316 µM): 105% | viability, T/C [7]: 103% | viability, T/C [8]: 87.5% | viability, T/C [9]: 78.5% | viability, T/C (second compound 0.316 µM, first compound 0.000316 µM): 113% | viability, T/C (second compound 0.316 µM, first compound 0.001 µM): 109% | viability, T/C (second compound 0.316 µM, first compound 0.00316 µM): 105% | viability, T/C [13]: 97.6% | viability, T/C [14]: 97.7% | viability, T/C [15]: 88.4% | viability, T/C (second compound 1 µM, first compound 0.000316 µM): 106% | viability, T/C (second compound 1 µM, first compound 0.001 µM): 97.3% | viability, T/C (second compound 1 µM, first compound 0.00316 µM): 94.9% | viability, T/C [19]: 94.8% | viability, T/C [20]: 83.2% | viability, T/C [21]: 73.3% | viability, T/C (second compound 3.16 µM, first compound 0.000316 µM): 74.3% | viability, T/C (second compound 3.16 µM, first compound 0.001 µM): 64.2% | viability, T/C (second compound 3.16 µM, first compound 0.00316 µM): 65.1% | viability, T/C [25]: 65.3% | viability, T/C [26]: 54.3% | viability, T/C [27]: 49.2% | viability, T/C (second compound 10 µM, first compound 0.000316 µM): 18.7% | viability, T/C (second compound 10 µM, first compound 0.001 µM): 20.8% | viability, T/C (second compound 10 µM, first compound 0.00316 µM): 20.6% | viability, T/C (second compound 10 µM, first compound 0.01 µM): 21.9% | viability, T/C [31]: 21.3% | viability, T/C [32]: 18.6%

CC(=O)OC12COC1CC(O)C1(C)C(=O)C(O)C3=C(C)C(OC(=O)C(O)C(NC(=O)OC(C)(C)C)c4ccccc4)CC(O)(C(OC(=O)c4ccccc4)C21)C3(C)C (stereo not given) + C=CC(=O)N1CCN(c2nc(OCC3CCCN3C)nc3c2CCN(c2cccc4cccc(C)c24)C3)CC1CC#N
IC50 (second compound 0.0316 µM): < 10 nM | IC50 (second compound 0.1 µM): < 10 nM | IC50 (second compound 0.316 µM): < 10 nM | IC50 (second compound 1 µM): < 10 nM | IC50 (second compound 3.16 µM): < 10 nM | viability, T/C [1]: 12.8% | viability, T/C [2]: 14.4% | viability, T/C [3]: 10.5% | viability, T/C [4]: 11.3% | viability, T/C [5]: 13.3% | viability, T/C [6]: 17.1% | viability, T/C [7]: 13.8% | viability, T/C [8]: 12% | viability, T/C [9]: 9.84% | viability, T/C [10]: 9.08% | viability, T/C [11]: 12.5% | viability, T/C [12]: 14.9% | viability, T/C [13]: 11.8% | viability, T/C [14]: 9.96% | viability, T/C [15]: 8.56% | viability, T/C [16]: 9.75% | viability, T/C [17]: 15.3% | viability, T/C [18]: 14.3% | viability, T/C [19]: 8.08% | viability, T/C [20]: 6.89% | viability, T/C [21]: 6.48% | viability, T/C [22]: 7.06% | viability, T/C [23]: 6.74% | viability, T/C [24]: 7.91% | viability, T/C [25]: 15.1% | viability, T/C [26]: 13.7% | viability, T/C [27]: 11.1% | viability, T/C [28]: 11.6% | viability, T/C [29]: 14% | viability, T/C [30]: 18.2%

CC(C)NCC(C(=O)N1CCN(c2ncnc3c2C(C)CC3O)CC1)c1ccc(Cl)cc1 (stereo not given) + CC1OCC2(CCN(c3cnc(Sc4ccnc(N)c4Cl)c(N)n3)CC2)C1N
IC50 (second compound 0.1 µM): 5030 nM | IC50 (second compound 0.316 µM): 3620 nM | IC50 (second compound 1 µM): < 31.6 nM | IC50 (second compound 3.16 µM): < 31.6 nM | IC50 (second compound 10 µM): < 31.6 nM | viability, T/C [8]: 67.3% | viability, T/C [9]: 65.3% | viability, T/C [10]: 65% | viability, T/C [11]: 67% | viability, T/C [12]: 58% | viability, T/C (second compound 0.1 µM, first compound 10 µM): 36.8% | viability, T/C [14]: 51.1% | viability, T/C [15]: 57% | viability, T/C [16]: 56.8% | viability, T/C [17]: 55.7% | viability, T/C [18]: 52.3% | viability, T/C (second compound 0.316 µM, first compound 10 µM): 31.1% | viability, T/C [20]: 46.2% | viability, T/C [21]: 42.9% | viability, T/C [22]: 48.1% | viability, T/C [23]: 46.1% | viability, T/C [24]: 39.3% | viability, T/C (second compound 1 µM, first compound 10 µM): 25.9% | viability, T/C [26]: 36.1% | viability, T/C [27]: 36.5% | viability, T/C [28]: 39.9% | viability, T/C [29]: 41.7% | viability, T/C [30]: 37.4% | viability, T/C (second compound 3.16 µM, first compound 10 µM): 22.7% | viability, T/C [31]: 33.6% | viability, T/C [32]: 33.8% | viability, T/C (second compound 10 µM, first compound 0.316 µM): 39.4% | viability, T/C (second compound 10 µM, first compound 1 µM): 33.8% | viability, T/C (second compound 10 µM, first compound 3.16 µM): 32.9% | viability, T/C (second compound 10 µM, first compound 10 µM): 20.6%
